Experimental data published in patent publication US12448373B2, “Azetidinyl-acetamides as CXCR7 inhibitors” (CHEMOCENTRYX, INC., priority 2021, dated 2025).
pIC50: −log10 of the molar value.

Biological target: T1, CXCR7 (Homo sapiens, UniProt P25106)
T1 construct: expressed in transfected cells; host or cells: CHO cells (CHO-CXCR7), transgenes maintained with Hygromycin B and G418
Assay: CXCR7 β-arrestin recruitment assay in CHO-CXCR7 cells (ProLink/EA β-galactosidase complementation), induced by human SDF-1a
Type: cell-based
Conditions: assay buffer, SDF-1a at EC50 concentration
Method in brief: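 CHO cells co-expressing ProLink-tagged CXCR7 and β-arrestin-EA were pre-plated overnight, then given compound and human SDF-1α at its same-day EC50. After 1.5 h at 37 °C, complemented β-galactosidase was read from 0.4 mM 3-carboxyumbelliferyl β-D-galactopyranoside (30 min, 37 °C; ex 360/em 465 nm). IC50 by 3-parameter fit.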

T1 sequence (P25106 whole entry): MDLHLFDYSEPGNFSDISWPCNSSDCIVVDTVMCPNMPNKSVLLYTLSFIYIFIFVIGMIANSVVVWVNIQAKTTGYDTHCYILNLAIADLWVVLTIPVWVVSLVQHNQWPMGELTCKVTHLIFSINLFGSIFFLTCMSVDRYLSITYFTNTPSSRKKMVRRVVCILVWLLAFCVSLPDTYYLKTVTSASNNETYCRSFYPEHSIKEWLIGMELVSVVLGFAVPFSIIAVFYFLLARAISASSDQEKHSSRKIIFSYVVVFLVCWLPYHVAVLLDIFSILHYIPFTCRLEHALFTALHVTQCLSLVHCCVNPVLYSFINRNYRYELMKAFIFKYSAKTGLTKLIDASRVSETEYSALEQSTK

Row | SMILES | pIC50
1 | CC(N1CC(CC(=O)NC(C)(C)c2ccccn2)(NC(=O)c2cc(-c3ccc(F)cc3F)on2)C1)C(F)(F)F (stereo not shown) [Example 1.312] | 4.70 to 6.00
2 | CC(C)(NC(=O)CC1(NC(=O)c2ccn(-c3ccc(F)cc3F)n2)CN([C@H]2CC[C@](C)(O)CC2)C1)c1cccc(Cl)c1 [Example 1.056] | 4.70 to 6.00
3 | Cc1cc(C)nc(C(C)(C)NC(=O)CC2(NC(=O)c3cc(-c4ccc(F)cc4F)on3)CN(C3CCOCC3(C)C)C2)n1 (stereo not shown) [Example 1.351] | 6.00 to 7.00
4 | CC(C)(CO)NC(=O)CC1(NC(=O)c2cc(-c3ccc(F)cc3F)on2)CN(C2CCCCC2)C1 [Example 1.309] | 6.00 to 7.00
5 | CC(C)(NC(=O)CC1(NC(=O)c2cc(-c3ccc(F)cc3F)on2)CN([C@H]2CC[C@](C)(O)CC2)C1)c1ccc(F)c(F)c1 [Example 1.257] | 7.00 to 8.30
6 | COc1cc(C)cc(C(C)(C)NC(=O)CC2(NC(=O)c3cc(-c4ccc(F)cc4F)on3)CN([C@H]3CC[C@@](C)(O)CC3)C2)c1 [Example 1.118] | 7.00 to 8.30
7 | Cc1cccc(C(C)(C)NC(=O)CC2(NC(=O)c3cc(-c4ccc(F)cc4F)on3)CN(C3CCC4(CC3)COC4)C2)n1 [Example 1.226] | 7.00 to 8.30
8 | COc1cccc(C(C)(C)NC(=O)CC2(NC(=O)c3cc(-c4ccc(F)cc4F)on3)CN(CC(C)(C)O)C2)c1 [Example 1.179] | 7.00 to 8.30
9 | CC(C)(NC(=O)CC1(NC(=O)c2cc(-c3ccc(F)cc3F)on2)CN([C@H]2CC[C@](C)(O)CC2)C1)c1cccc(OC(F)(F)F)c1 [Example 1.198] | 7.00 to 8.30
10 | Cc1cccc(C(C)(C)NC(=O)CC2(NC(=O)c3nnc(-c4ccc(F)cc4F)s3)CN(CC(C)C)C2)n1 [Example 1.027] | 7.00 to 8.30
11 | CC(C)(NC(=O)CC1(NC(=O)c2cc(-c3ccc(F)cc3F)on2)CN([C@H]2CC[C@](C)(O)CC2)C1)c1ccccn1 [Example 1.035] | 7.00 to 8.30
12 | COc1cc(C)nc(C(C)(C)NC(=O)CC2(NC(=O)c3cc(-c4ccc(F)cc4F)on3)CN([C@H]3CC[C@](C)(O)CC3)C2)c1 [Example 1.339] | 7.00 to 8.30
13 | CC(C)(NC(=O)CC1(NC(=O)c2cc(-c3ccc(F)cc3F)on2)CN(C2CCCCC2)C1)c1ccc(Cl)nc1 [Example 1.284] | 7.00 to 8.30
14 | CC(C)(NC(=O)CC1(NC(=O)c2nnc(-c3ccc(F)cc3F)s2)CN([C@H]2CC[C@](C)(O)CC2)C1)c1cc(Cl)cc(C#N)c1 [Example 1.345] | 7.00 to 8.30
15 | O=C(CC1(NC(=O)c2cc(-c3ccc(F)cc3F)on2)CN(CC2CC2)C1)NC1(c2ncccn2)CC1 [Example 1.334] | 7.00 to 8.30
16 | CC(C)(NC(=O)CC1(NC(=O)c2cc(-c3ccc(F)cc3F)on2)CN([C@H]2CC[C@](C)(O)CC2)C1)c1ccc(F)cc1F [Example 1.287] | 7.00 to 8.30
17 | Cc1cc(C)nc(C(C)(C)NC(=O)CC2(NC(=O)c3cc(-c4ccc(F)cc4F)on3)CN(C3CC(C)OC(C)C3)C2)n1 (stereo not shown) [Example 1.354] | 6.00 to 7.00
18 | CC(C)(NC(=O)CC1(NC(=O)c2cc(-c3ccc(F)cc3F)on2)CN(C2CCCCC2)C1)c1cccc(C(F)(F)F)c1 [Example 1.271] | 6.00 to 7.00
19 | C[C@]1(O)CC[C@@H](N2CC(CC(=O)NCc3cccc(Cl)c3)(NC(=O)c3cc(-c4ccc(F)cc4F)on3)C2)CC1 [Example 1.109] | 6.00 to 7.00
20 | CC(C)CN1CC(CC(=O)NC(C)(C)c2cccc(Cl)c2)(NC(=O)c2cc(-c3ccc(F)cc3F)on2)C1 [Example 1.120] | 7.00 to 8.30
21 | Cc1cc(C(C)C)cc(C(C)(C)NC(=O)CC2(NC(=O)c3cc(-c4ccc(F)cc4F)on3)CN([C@H]3CC[C@](C)(O)CC3)C2)n1 [Example 1.344] | 6.00 to 7.00
22 | CC(C)(NC(=O)CC1(NC(=O)c2cc(-c3ccc(F)cc3F)on2)CN([C@H]2CC[C@](C)(O)CC2)C1)c1ccnc(C2CC2)c1 [Example 1.147] | 7.00 to 8.30
23 | COc1ccnc(C(C)(C)NC(=O)CC2(NC(=O)c3cc(-c4ccc(F)cc4F)on3)CN([C@H]3CC[C@@](C)(O)CC3)C2)c1 [Example 1.200] | 7.00 to 8.30

The remaining lines, values ahead:

Row | pIC50 | SMILES
24 | 7.00 to 8.30 | CC(C)(NC(=O)CC1(NC(=O)c2cc(-c3ccc(F)cc3F)on2)CN(C2CC3CC3C2)C1)c1ccccn1 (stereo not shown) [Example 1.014]
25 | > 8.30 | Cc1cc(C(C)(C)NC(=O)CC2(NC(=O)c3cc(-c4ccc(F)cc4F)on3)CN([C@H]3CC[C@](C)(O)CC3)C2)ccn1 [Example 1.211]
26 | 7.00 to 8.30 | CC(C)(NC(=O)CC1(NC(=O)c2cc(-c3ccc(F)cc3F)on2)CN(C2CCC3(CC2)COC3)C1)c1cccc(F)c1 [Example 1.234]
27 | > 8.30 | CC(C)(NC(=O)CC1(NC(=O)c2cc(-c3ccc(F)cc3F)on2)CN([C@H]2CC[C@@](C)(O)CC2)C1)c1ccccc1Cl [Example 1.218]
28 | 7.00 to 8.30 | Cc1cc(C(C)(C)NC(=O)CC2(NC(=O)c3cc(-c4ccc(F)cc4F)on3)CN(CC3(C)COC3)C2)ccn1 [Example 1.151]
29 | 7.00 to 8.30 | CC(C)(NC(=O)CC1(NC(=O)c2cc(-c3ccc(F)cc3F)on2)CN([C@H]2CC[C@](C)(O)CC2)C1)c1c[nH]c2ncccc12 [Example 1.097]
30 | 7.00 to 8.30 | CC(C)CN1CC(CC(=O)NC(C)(C)c2cc(Cl)cc(Cl)c2)(NC(=O)c2cc(-c3ccc(F)cc3F)on2)C1 [Example 1.093]
31 | > 8.30 | CC(C)(NC(=O)CC1(NC(=O)c2cc(-c3ccc(F)cc3F)on2)CN([C@H]2CC[C@](C)(O)CC2)C1)c1cc(Cl)ccc1Cl [Example 1.088]
32 | 7.00 to 8.30 | Cc1ccc(C(C)(C)NC(=O)CC2(NC(=O)c3cc(-c4ccc(F)cc4F)on3)CN(C3CCCCC3)C2)cn1 [Example 1.281]
33 | > 8.30 | CC1(O)CCC(N2CC(CC(=O)NC3(c4ncccn4)CC3)(NC(=O)c3cc(-c4ccc(F)cc4F)on3)C2)CC1 (stereo not shown) [Example 1.277]
34 | > 8.30 | COC1CCCCC1N1CC(CC(=O)NC(C)(C)c2ccccn2)(NC(=O)c2cc(-c3ccc(F)cc3F)on2)C1 (stereo not shown) [Example 1.305]
35 | > 8.30 | CC(C)(NC(=O)CC1(NC(=O)c2cc(-c3ccc(F)cc3F)on2)CN([C@H]2CC[C@@](C)(O)CC2)C1)c1cccc(C#N)c1 [Example 1.172]
36 | > 8.30 | CC(C)(NC(=O)CC1(NC(=O)c2cc(-c3ccc(F)cc3F)on2)CN([C@H]2CC[C@@](C)(O)CC2)C1)c1cccc(C(F)(F)F)n1 [Example 1.155]
37 | > 8.30 | Cc1cccc(C(C)(C)NC(=O)CC2(NC(=O)c3cc(-c4ccc(F)cc4F)on3)CN([C@H]3CC[C@](C)(O)CC3)C2)c1 [Example 1.237]
38 | > 8.30 | CC(C)(NC(=O)CC1(NC(=O)c2cc(-c3ccc(F)cc3F)on2)CN([C@H]2CC[C@@](C)(O)CC2)C1)c1cccc(OC(F)(F)F)c1 [Example 1.197]
39 | > 8.30 | Cc1cc(Cl)cc(C(C)(C)NC(=O)CC2(NC(=O)c3cc(-c4ccc(F)cc4F)on3)CN([C@H]3CC[C@](C)(O)CC3)C2)c1 [Example 1.090]
40 | > 8.30 | CC(C)(NC(=O)CC1(NC(=O)c2cc(-c3ccc(F)cc3F)on2)CN(C2CCCCC2)C1)c1ccccc1C(F)(F)F [Example 1.308]
41 | > 8.30 | CC(C)(NC(=O)CC1(NC(=O)c2cc(-c3ccc(F)cc3F)on2)CN(C2(C)CCCCC2)C1)c1cccc(Cl)c1 [Example 1.360]
42 | > 8.30 | CC(C)(NC(=O)CC1(NC(=O)c2nnc(-c3ccc(F)cc3F)s2)CN([C@H]2CC[C@](C)(O)CC2)C1)c1cccc(F)c1 [Example 1.042]
43 | > 8.30 | Cc1ccc(F)c(C(C)(C)NC(=O)CC2(NC(=O)c3cc(-c4ccc(F)cc4F)on3)CN([C@H]3CC[C@](C)(O)CC3)C2)c1 [Example 1.185]
